Results as given in patent US11840707B2, “Co-culture system and method for in vitro assessment of reverse cholesterol transport” (INSTITUT DE CARDIOLOGIE DE MONTREAL, priority 2016, dated 2023).

Assays:
J774 macrophages = assay: Co-culture assay: Specific Chol Efflux from 3H-cholesterol-labeled J774 macrophages; format: cell-based, murine
From the text: (§1) Total Chol Efflux is the sum of co-culture medium counts plus hepatic counts, while Total Chol Uptake is defined as hepatic counts only. Both Chol Efflux and Chol Uptake are expressed as % of total counts in the system. Background values, corresponding to basal co-culture medium (without acceptors), can be subtracted from the corresponding values in presence of acceptors to obtain Specific Chol Efflux (%) and Specific Chol Uptake (%) values.
(§2) Simultaneous Measurement of Cholesterol Flux Between Cholesterol-Loaded, ^3H-Cholesterol-Labeled J774 Cells and Target HepG2 Hepatocytes in a Transwell-Clear™ Insert.
(§3) J774 cells were seeded at a density of 8,000 cells per cm^2 in 1 mL of Dulbecco's minimal essential medium (DMEM, high glucose) and supplemented with 10% fetal bovine serum (FBS) and 1% penicillin/streptomycin in standard 12-well (3.8 cm^2) flat bottom plates (Corning).
(§4) Loaded plates were pre-incubated in an incubator at 37° C. with 5% CO2 for 30-45 min without cells in order to improve later cell attachment and maximize cell spreading on the insert membrane during cell culture. After pre-incubation, the media was removed. The wells of the Transwell plates were then filled with 1.5 mL of EMEM (low glucose) supplemented with 10% FBS and 1% penicillin/streptomycin and HepG2 cells were seeded at a density of 60,000 cells per cm^2 in 0.5 mL EMEM (low glucose) supplemented with 10% FBS and 1% penicillin/streptomycin on each insert.
(§5) Following seeding in plates or inserts, both cell types were placed in a cell incubator at 37° C. filled with humidified air and 5% CO2 and incubated for 72 h.
(§6) Following the 72-hour incubation and achieving a J774 cell confluence of 70-80%, the J774 cells were washed with 1 mL per well of PBS at 20° C. After the wash, 1 mL of Labeling Medium was added to each well. The Labeling Medium contained: 1% FBS, 1% penicillin/streptomycin, 2 μCi/mL of ^3H-cholesterol (Perkin-Elmer, NET139005MC), 50 μg protein/mL of acetylated LDL (acLDL) and DMEM (high glucose). The cells were then incubated for 24 hr at 37° C. in a cell incubator filled with humidified air and 5% CO2. One plate served as a reference to determine the labeled-cholesterol level in cells prior to co-culture assay.
(§7) Following the 72-hour incubation, the culture medium was removed from HepG2 cells grown on the insert membrane and replaced with 2 mL of fresh EMEM (low glucose) supplemented with 10% FBS and 1% penicillin/streptomycin. The cells were then incubated for an additional 24 hours at 37° C. in an incubator filled with humidified air and 5% CO2.
(§8) Following the 24-hour incubation of J774 cells, the labeling medium was removed from the plates and discarded. The cells were then washed with 1 mL of phosphate-buffered saline (PBS) at 20° C. and replaced with Equilibration Medium containing: DMEM (high glucose), 0.2% Bovine Serum Albumin (BSA) (low endotoxin, fatty acid-free, Sigma, cat. #A8806) and the appropriate Treatment under study. The J774 culture was then incubated for 24 hours.
(§9) J774 cells ongoing the ^3H-cholesterol equilibration phase and/or HepG2 cells before co-culture can be treated by various means. Pharmacological agent is diluted in the appropriate culture medium with 0.2% BSA and vehicle (solvent) is tested in parallel. Modulation of gene expression is also accomplished at this step, by transfection of siRNA according to the manufacturer's protocol, and a control non-silencing RNA is tested in parallel.
After 24 hour of incubation, equilibration medium from J774 culture and culture medium from HepG2 cells were discarded. Cells were washed with 1 mL (J774) or 2 mL (HepG2) of PBS at 20° C. and the wash medium discarded. Transwell inserts containing HepG2 cells were removed and transferred to each well containing the J774 culture. 2 mL of co-culture media (DMEM without phenol red, high glucose, 4.5 g/L) were added to each well. The resulting co-culture system was incubated in a cell incubator at 37° C. for 24 hours.

HepG2 hepatocytes = assay: Co-culture assay: Specific Chol Uptake into HepG2 hepatocytes on insert membrane; format: cell-based, human; conditions: for reduction of hepatic Specific Chol Uptake: 10 μM, HepG2 overnight and during co-culture
From the text: as §1, §2, §3
as §4, with “Transwell-Clear™ 12-well plates (Corning, cat. #3642), each consisting of 12 cylindrical cell culture inserts (1.12 cm^2 insert/well) were bathed with 2 mL Eagle's minimal essential medium (EMEM, low glucose) distributed as follows: 0.5 mL in the insert and 1.5 mL in the well. Loaded” for “Loaded”
as §5, §6, §7, §8, §9
After 24 hour of incubation, equilibration medium from J774 culture and culture medium from HepG2 cells were discarded. Cells were washed with 1 mL (J774) or 2 mL (HepG2) of PBS at 20° C. and the wash medium discarded.

[1] = 24 h co-culture, one-site non-linear regression
[2] = purified acceptor, 24 h co-culture, one-site non-linear regression
[3] = 10 nM in co-culture medium for 24 h, acceptor complete human serum
[4] = J774 pre-treated overnight 10 μM, acceptors HS and DHS, vs vehicle DMSO

ApoA-I: human apolipoprotein A-I, purified, used as Chol acceptor
Bmax (maximal flux), Specific Efflux (J774 macrophages; [1]): 15.9 ± 0.9% | Specific Chol Efflux compared to LDL (J774 macrophages; acceptor at 100 μg/ml, 24 h co-culture): higher | kA (affinity constant), Specific Efflux (J774 macrophages; [2]): 7.2 ± 1.4 μg protein/mL | Bmax (maximal flux), Specific Uptake (HepG2 hepatocytes; [1]): 0.83 ± 0.03% | kA (affinity constant), Specific Uptake (HepG2 hepatocytes; [2]): 7.0 ± 1.0 μg protein/mL

CC[C@H](C)C(=O)O[C@H]1CCC=C2C=C[C@H](C)[C@H](CC[C@@H]3C[C@@H](O)CC(=O)O3)[C@H]21 [mevastatin]
effect on Specific Chol Efflux (J774 macrophages; HepG2 pre-treated overnight 25 μM, acceptor human serum): did not change | effect on Chol Efflux to human serum (J774 macrophages; hepatocytes pre-treated 10 μM, acceptor human serum): no effect | effect on Specific Chol Uptake (HepG2 hepatocytes; HepG2 pre-treated overnight 25 μM, acceptor apoB-depleted serum): reduced effect | effect on Specific Chol Uptake (HepG2 hepatocytes; HepG2 pre-treated overnight 25 μM, acceptor complete human serum): significantly increased | effect on Chol Uptake (HepG2 hepatocytes; hepatocytes pre-treated 10 μM, acceptor apoB-depleted serum, compared to complete serum): reduced effect | effect on hepatic Chol Uptake (HepG2 hepatocytes; hepatocytes pre-treated 10 μM, acceptor complete human serum): increased

PCSK9 D374Y: purified human PCSK9 gain-of-function D374Y mutant protein
effect on Specific Chol Efflux (J774 macrophages; [3]): no effect | effect on Specific Chol Efflux (J774 macrophages; 10 nM in co-culture medium for 24 h, acceptor complete human serum, listed as purified PCSK9 mutant): did not influence | effect on Specific Chol Uptake (HepG2 hepatocytes; [3]): markedly reduced

O=S(=O)(c1ccccc1)N(CC(F)(F)F)c1ccc(C(O)(C(F)(F)F)C(F)(F)F)cc1 [TO901317]
effect on Specific Chol Efflux (J774 macrophages; [4]): increased | effect on Specific Chol Uptake (HepG2 hepatocytes; [4]): increased

CCOC(=O)N1c2ccc(C(F)(F)F)cc2[C@@H](N(Cc2cc(C(F)(F)F)cc(C(F)(F)F)c2)C(=O)OC)C[C@H]1CC [torcetrapib]
effect on Specific Efflux (J774 macrophages; 10 μM, HepG2 overnight and during co-culture, acceptors HS and DHS): did not affect | reduction of hepatic Specific Chol Uptake (HepG2 hepatocytes; acceptor apoB-depleted serum): 21% | reduction of hepatic Specific Chol Uptake (HepG2 hepatocytes; acceptor apoB-depleted serum, listed as Torcetrapib): reduced | reduction of hepatic Specific Chol Uptake (HepG2 hepatocytes; acceptor complete serum): 31% | reduction of hepatic Specific Chol Uptake (HepG2 hepatocytes; acceptor complete serum, listed as Torcetrapib): reduced
